{"source": "patent US11478440B2", "about": "“Combination of Elafibranor or derivatives thereof with an anti-NASH, anti-fibrotic or anti-cholestatic agent” (GENFIT, priority 2017, dated 2022)", "key": {"TGFβ1-induced hHSC": {"system": "TGFβ1-induced hHSC", "experiment": "α-SMA ELISA in TGFβ1-induced human primary hepatic stellate cells", "type": "cell-based", "description": "(§1) The human primary hepatic stellate cells (hHSC) (Innoprot) were cultured in STeCM medium (ScienCell cat #5301) that was supplemented with 2% fetal bovine serum (FBS, ScienCell cat #0010), 1% penicillin/streptomycin (ScienCell cat #0503) and stellate cell growth supplement (SteCGS; ScienCell cat #5352). Cell culture flasks were coated with Poly-L Lysine (Sigma cat #P4707) for a better adherence.\nFor these experiments, a checkerboard matrix was generated. ELA and component (ii) stocks were serially diluted in DMSO in 5-points series in a row (ELA) and a 11-points series in a column (component (ii)) of a 96-well plate. Subsequently, the 5×11 combination matrix was generated by 1:1 mixing of all single agent concentrations. The test concentrations for each compound were chosen based on the respective IC50 of each compound as single agent obtained by measuring α-SMA content in the HSC model stimulated with TGF-β1.\nThe human primary hepatic stellate cells (hHSC) (Innoprot) were cultured under standard conditions, as described above. The cells were subsequently plated at a density of 2×10^4 cells/well into 96-well plates for the measure of α-SMA by ELISA. The next day, cell-culture medium was removed, and cells were washed with PBS (Invitrogen cat #14190). hHSC were deprived for 24 hours in serum-free and SteCGS-free medium. For the treatments with ELA, component (ii) and the respective ELA/component (ii) combinations, the serum-deprived hHSC were preincubated for 1 hour with the compounds followed by addition of the profibrogenic stimuli TGF-β1 (PeproTech cat #100-21, 1 ng/mL) in serum-free and SteCGS-free medium for an additional 48 hour period.\nThe level of α-SMA was measured using a Sandwich ELISA. Briefly, the wells of an ELISA plate were first coated with the capture antibody (mouse monoclonal anti-ACTA2, Abnova) at 4° C. overnight. After 3 washes in PBS+0.2% Tween 20, a blocking solution consisting of PBS+0.2% BSA was added for one hour followed by another washing cycle. The cell lysates were transferred into the wells for binding to the capture antibody for a period of 2 h at room temperature. After the washing procedure, the detection antibody (biotinylated mouse monoclonal anti-ACTA2, Abnova) was added for 2 hours at room temperature followed by 3 washes. For the detection, an HRP-conjugated Streptavidin (R&D Systems cat #DY998) was first applied for 30 min at room temperature. After washing, the HRP substrate TMB (BD, #555214) was added and incubated for 7 min at room temperature in the dark. Upon oxidation, TMB forms a water-soluble blue reaction product that becomes yellow with addition of sulfuric acid (solution stop), enabling accurate measurement of the intensity at 450 nm using a spectrophotometer. The developed color is directly proportional to the amount of α-SMA present in the lysate.\nas §1, with “Cell-culture” for “Cell culture”\nFor these experiments, a checkerboard matrix was generated. CVC and Elafibranor stocks were serially diluted in DMSO in a 5-points series in a row (Elafibranor) and a 6-points series in a column (Cenicriviroc) of a 96-well plate. Subsequently, the […] combination matrix was generated by 1:1 mixing of all single agent concentrations. The test concentrations for each compound were chosen based on the respective IC50 of each compound as single agent obtained by measuring α-SMA content in the HSC model stimulated with TGF-β1.\nThe human primary hepatic stellate cells (hHSC) (Innoprot) were cultured under standard conditions, as described above. […]"}, "NASH": {"system": "NASH", "details": "over 800 patients and healthy volunteers; cited from earlier work"}, "[1]": {"system": "fibrosing NASH-model of rats fed a CDAA+1% cholesterol diet", "experiment": "Chronic CDAA+1% cholesterol rat model: liver histology (picrosirius fibrosis surface, NASH lesions)", "type": "in vivo, Wistar rats", "description": "The preventive effects of Elafibranor alone, OCA alone and the combination of both were assessed in a fibrosing NASH-model of rats fed a CDAA+1% cholesterol diet. 150-175 g male Wistar rats were fed a control (CSAA) diet, CDAA+1% cholesterol diet, or CDAA+1% cholesterol diet supplemented with Elafibranor 1, 3 and 10 mg/kg/day, OCA 10 and 30 mg/kg/day or combined drugs (Elafibranor 1, 3 and 10 mg/kg/day combined to OCA 10 mg/kg/day) for 12 weeks.\nThe body weight and the food intake were monitored twice per week. On the last day of treatment, rats were sacrificed after a 6 h fasting period. The liver was rapidly excised for biochemical and histological studies.\nThe liver slices were first fixed for 12 hours in formalin 4% solution. Then, the liver pieces were washed 30 minutes in PBS, and dehydrated in ethanol solutions (successive baths at 70, 80, 95 and 100% ethanol). The liver pieces were incubated in three different baths of Xylene (Sigma-Aldrich cat #534056), followed by two baths in liquid paraffin (56° C.). Liver pieces were then put into racks that were gently filled with HISTOWAX to completely cover the tissue.\nThe paraffin blocks containing the tissue pieces were removed from the racks and stored at room temperature. The liver blocks were cut into 3 μm slices.\nLiver sections were deparaffinized, rehydrated and incubated for 3 minutes in Mayer's Hematoxylin (Microm, cat #F/C0303). Then, the liver sections were rinsed in water and incubated 1 minute in Eosin G (VWR, cat #1.09844.1000). Sections were rinsed in water then dehydrated, and mounted using the CV Mount medium (Leica, cat #14046430011).\nLiver sections were deparaffinized, rehydrated and incubated for 15 minutes in a solution of Fast Green FCF 0.1% (Sigma-Aldrich, cat #F7258) before rinsing in a bath of 0.5% acetic acid (Panreac, cat #131008.1611). Then, the liver sections were rinsed in water and incubated 30 minutes in a solution of 0.1% sirius red (Direct Red 80, Fluka cat #43665) in saturated aqueous picric acid (Sigma-Aldrich cat #P6744). Sections were then dehydrated, and mounted using the CV Mount medium (Leica, cat #14046430011).\nA technician blinded to the source of each liver specimen performed histological examinations. Virtual slides were generated using the Pannoramic 250 scanner from 3D Histech. For each animal, a score summarizing the main histological lesions of NASH was attributed according to the NASH Clinical Research Network (Kleiner 2005, Brunt 1999). Briefly, steatosis, lobular inflammation and hepatocytes ballooning were scored. The NAFLD Activity Score (NAS score) was established for each individual as the unweighted sum of the steatosis (0-3), lobular inflammation (0-3) and the ballooning (0-2) injury grading.\nUsing Quant Center software (3D Histech, including Pattern Quant and Histo Quant modules), collagen-stained areas were quantified. Briefly, Pattern Quant was used to detect the tissue and measure its surface. Then, Histo Quant was used to detect the stained collagen content and measure its surface, based on a color threshold method. The fibrosis area was then expressed as the percentage of the collagen surface to the whole tissue per animal."}}, "data": [{"substance": "1-[4-methylthiophenyl]-3-[3,5-dimethyl-4-carboxydimethylmethyloxyphenyl]prop-2-en-1-one [Elafibranor]", "values": [{"measurement": "α-SMA inhibition over TGFβ1 control", "setting": "TGFβ1-induced hHSC; 5 μM of Elafibranor alone", "value": 40, "unit": "%"}, {"measurement": "IC50", "setting": "TGFβ1-induced hHSC; TGFβ1 1 ng/ml, 48 h, single agent", "value": 3.17, "unit": "µM"}, {"measurement": "α-SMA marker reduction", "setting": "TGFβ1-induced hHSC; TGFβ1 1 ng/ml, 48 h, single agent, maximal reduction", "value": 80, "unit": "%"}, {"measurement": "antifibrotic activity (α-SMA), single agent", "setting": "TGFβ1-induced hHSC; TGFβ1-activated hHSC, dose range", "value": "has an antifibrotic activity"}, {"measurement": "clinical properties for NASH (liver markers, insulin sensitivity, plasma lipids, anti-inflammatory)", "setting": "NASH", "value": "has demonstrated beneficial properties for NASH"}, {"measurement": "fibrosis development", "setting": "[1]; CDAA/chol diet rats, 12 weeks", "value": "very significant attenuation of fibrosis development"}, {"measurement": "hepatocyte damage as judged by ballooning", "setting": "[1]; CDAA/chol diet rats, 12 weeks", "value": "prevented or attenuated by elafibranor, in a dose-dependent manner"}, {"measurement": "lobular inflammation", "setting": "[1]; CDAA/chol diet rats, 12 weeks", "value": "attenuated by elafibranor in a dose-dependent manner"}, {"measurement": "Fibrosis surface, percentage over the untreated CDAA + 1% cholesterol rats", "setting": "[1]; GFT505 3 mg/kg/d, OCA 10 mg/kg/d, alone or combined, 12 weeks in diet", "value": "34% ± 17%"}]}]}
